pIC50: −log10 of the molar value.
System: 931267-113-T-J1-PDC KRAS spheroid with HUVEC/MSC, viability
Assay: Anticancer human tumor 931267-113-T-J1-PDC patient-derived colon adenocarcinoma cell line growth inhibition [KRAS2]
Conditions: for pIC50: curve of first compound; for viability, T/C: stronger effect = lower value
Method in brief: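 Combination screen of spheroid viability in tumor-cell co-cultures with endothelial (HUVEC) and mesenchymal stem cell stroma. Each agent was tested in half-log dilutions, topping at clinical Cmax or at 10 microM without a known Cmax.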

[1] = second compound 0.1 µM, first compound 0.0316 µM
[2] = second compound 0.1 µM, first compound 0.1 µM
[3] = second compound 0.1 µM, first compound 0.316 µM
[4] = second compound 0.1 µM, first compound 1 µM
[5] = second compound 0.1 µM, first compound 3.16 µM
[6] = second compound 0.1 µM, first compound 10 µM
[7] = second compound 0.316 µM, first compound 0.0316 µM
[8] = second compound 0.316 µM, first compound 0.1 µM
[9] = second compound 0.316 µM, first compound 0.316 µM
[10] = second compound 0.316 µM, first compound 1 µM
[11] = second compound 0.316 µM, first compound 3.16 µM
[12] = second compound 0.316 µM, first compound 10 µM
[13] = second compound 1 µM, first compound 0.0316 µM
[14] = second compound 1 µM, first compound 0.1 µM
[15] = second compound 1 µM, first compound 0.316 µM
[16] = second compound 1 µM, first compound 1 µM
[17] = second compound 1 µM, first compound 3.16 µM
[18] = second compound 1 µM, first compound 10 µM
[19] = second compound 3.16 µM, first compound 0.0316 µM
[20] = second compound 3.16 µM, first compound 0.1 µM
[21] = second compound 3.16 µM, first compound 0.316 µM
[22] = second compound 3.16 µM, first compound 1 µM
[23] = second compound 3.16 µM, first compound 3.16 µM
[24] = second compound 3.16 µM, first compound 10 µM
[25] = second compound 10 µM, first compound 0.0316 µM
[26] = second compound 10 µM, first compound 0.1 µM
[27] = second compound 10 µM, first compound 0.316 µM
[28] = second compound 10 µM, first compound 1 µM
[29] = second compound 10 µM, first compound 3.16 µM
[30] = second compound 10 µM, first compound 10 µM
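Further: compound exposure lasted 7 days before the readout.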
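Wherever viability, T/C is given: 100% = DMSO vehicle control viability.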

Which results are given for `COc1cc(Nc2ncc3c(n2)-c2ccc(Cl)cc2C(c2c(F)cccc2OC)=NC3)ccc1C(=O)O` + COc1cc2nc(C)nc(NC(C)c3cc(N)cc(C(F)(F)F)c3)c2cc1OC1CCOC1?
pIC50 (second compound 0.1 µM): < 5.00; pIC50 (second compound 0.316 µM): < 5.00; pIC50 (second compound 1 µM): < 5.00; pIC50 (second compound 3.16 µM): < 5.00; pIC50 (second compound 10 µM): 7.27; viability, T/C [1]: 102%; viability, T/C [2]: 85.6%; viability, T/C [3]: 80.7%; viability, T/C [4]: 79.5%; viability, T/C [5]: 87.8%; viability, T/C [6]: 57%; viability, T/C [7]: 86.5%; viability, T/C [8]: 93.5%; viability, T/C [9]: 75.3%; viability, T/C [10]: 72.4%; viability, T/C [11]: 57.9%; viability, T/C [12]: 54.3%; viability, T/C [13]: 85.6%; viability, T/C [14]: 79.8%; viability, T/C [15]: 86.3%; viability, T/C [16]: 78.7%; viability, T/C [17]: 66.5%; viability, T/C [18]: 58.9%; viability, T/C [19]: 90%; viability, T/C [20]: 91%; viability, T/C [21]: 82.9%; viability, T/C [22]: 83.1%; viability, T/C [23]: 79%; viability, T/C [24]: 49.6%; viability, T/C [25]: 75.5%; viability, T/C [26]: 7.27%; viability, T/C [27]: 13.8%; viability, T/C [28]: 12.1%; viability, T/C [29]: 64.3%; viability, T/C [30]: 4.17%

`COc1cc2nccc(Oc3ccc(NC(=O)C4(C(=O)Nc5ccc(F)cc5)CC4)cc3)c2cc1OC` + COc1cc2nc(C)nc(NC(C)c3cc(N)cc(C(F)(F)F)c3)c2cc1OC1CCOC1 was tested. Which pIC50 (second compound 0.1 µM) did it give?
Its pIC50 is 5.14.

What about the pIC50 (second compound 0.316 µM) of the same molecule?
Its pIC50 is 5.31.

And the pIC50 (second compound 1 µM)?
Its pIC50 is 5.55.

And the pIC50 (second compound 3.16 µM)?
The pIC50 was 6.13.

And the pIC50 (second compound 10 µM)?
Its pIC50 is over 7.50.

And the viability, T/C [1]?
The viability, T/C was 105%.

What about the viability, T/C [2] of the same molecule?
The viability, T/C was 112%.

What about the viability, T/C [3] of the same molecule?
Its viability, T/C is 98.2%.

What about the viability, T/C [4] of the same molecule?
The viability, T/C was 93%.

What about the viability, T/C [5] of the same molecule?
Its viability, T/C is 63.8%.

And the viability, T/C [6]?
The viability, T/C was 44.8%.

What about the viability, T/C [7] of the same molecule?
Its viability, T/C is 111%.

What about the viability, T/C [8] of the same molecule?
The viability, T/C was 102%.

And the viability, T/C [9]?
Its viability, T/C is 83.1%.

And the viability, T/C [10]?
The viability, T/C was 90.9%.

And the viability, T/C [11]?
The viability, T/C was 51.1%.

What about the viability, T/C [12] of the same molecule?
The viability, T/C was 37.2%.

What about the viability, T/C [13] of the same molecule?
The viability, T/C was 94.6%.

What about the viability, T/C [14] of the same molecule?
The viability, T/C was 107%.

And the viability, T/C [15]?
Its viability, T/C is 90.6%.

And the viability, T/C [16]?
Its viability, T/C is 91.5%.

And the viability, T/C [17]?
Its viability, T/C is 45.6%.

What about the viability, T/C [18] of the same molecule?
The viability, T/C was 28.5%.

And the viability, T/C [19]?
Its viability, T/C is 74%.

And the viability, T/C [20]?
The viability, T/C was 87%.

And the viability, T/C [21]?
Its viability, T/C is 74.7%.

What about the viability, T/C [22] of the same molecule?
The viability, T/C was 41.4%.

What about the viability, T/C [23] of the same molecule?
Its viability, T/C is 4.72%.

And the viability, T/C [24]?
The viability, T/C was 0.2%.

What about the viability, T/C [25] of the same molecule?
Its viability, T/C is 1.73%.

And the viability, T/C [26]?
Its viability, T/C is 0.3%.

What about the viability, T/C [27] of the same molecule?
Its viability, T/C is 0.4%.

What about the viability, T/C [28] of the same molecule?
Its viability, T/C is 1.03%.

And the viability, T/C [29]?
Its viability, T/C is 0.15%.

What about the viability, T/C [30] of the same molecule?
Its viability, T/C is 0.23%.

`O=C(c1cc(Cc2n[nH]c(=O)c3ccccc23)ccc1F)N1CCN(C(=O)C2CC2)CC1` + COc1cc2nc(C)nc(NC(C)c3cc(N)cc(C(F)(F)F)c3)c2cc1OC1CCOC1 was tested. Which pIC50 (second compound 0.1 µM) did it give?
Its pIC50 is under 5.00.

And the pIC50 (second compound 0.316 µM)?
The pIC50 was under 5.00.

And the pIC50 (second compound 1 µM)?
The pIC50 was under 5.00.

And the pIC50 (second compound 3.16 µM)?
Its pIC50 is under 5.00.

And the pIC50 (second compound 10 µM)?
The pIC50 was under 5.00.

What about the viability, T/C [1] of the same molecule?
Its viability, T/C is 78.7%.

What about the viability, T/C [2] of the same molecule?
The viability, T/C was 81.4%.

What about the viability, T/C [3] of the same molecule?
Its viability, T/C is 85.7%.

And the viability, T/C [4]?
The viability, T/C was 87.7%.

What about the viability, T/C [5] of the same molecule?
The viability, T/C was 94.6%.

And the viability, T/C [6]?
Its viability, T/C is 113%.

And the viability, T/C [7]?
The viability, T/C was 85.1%.

What about the viability, T/C [8] of the same molecule?
The viability, T/C was 99.7%.

What about the viability, T/C [9] of the same molecule?
The viability, T/C was 88.2%.

And the viability, T/C [10]?
Its viability, T/C is 70.9%.

What about the viability, T/C [11] of the same molecule?
Its viability, T/C is 85.6%.

And the viability, T/C [12]?
The viability, T/C was 73%.

What about the viability, T/C [13] of the same molecule?
The viability, T/C was 89.6%.

What about the viability, T/C [14] of the same molecule?
Its viability, T/C is 92.1%.

What about the viability, T/C [15] of the same molecule?
Its viability, T/C is 99.1%.

And the viability, T/C [16]?
Its viability, T/C is 112%.

What about the viability, T/C [17] of the same molecule?
The viability, T/C was 97.5%.

And the viability, T/C [18]?
The viability, T/C was 84.1%.

And the viability, T/C [19]?
The viability, T/C was 107%.

What about the viability, T/C [20] of the same molecule?
Its viability, T/C is 87.5%.

What about the viability, T/C [21] of the same molecule?
Its viability, T/C is 95.5%.

What about the viability, T/C [22] of the same molecule?
The viability, T/C was 94.4%.

What about the viability, T/C [23] of the same molecule?
Its viability, T/C is 106%.

What about the viability, T/C [24] of the same molecule?
Its viability, T/C is 105%.

And the viability, T/C [25]?
Its viability, T/C is 101%.

What about the viability, T/C [26] of the same molecule?
The viability, T/C was 112%.

And the viability, T/C [27]?
The viability, T/C was 94.7%.

And the viability, T/C [28]?
Its viability, T/C is 98.3%.

And the viability, T/C [29]?
Its viability, T/C is 90.3%.

And the viability, T/C [30]?
The viability, T/C was 97.3%.
